Data set [1] in a line: Encapsulation efficiency of lipid nanoparticles (Quant-it RiboGreen RNA Assay). Type of data set: physicochemical. The following applies: lipid nanoparticles with luciferase mRNA. On the procedure:
(§1) Lipid nanoparticles were prepared by (1) dissolving and mixing ionizable lipid compounds, cholesterol, phospholipids and polyethylene glycolated lipids in ethanol at (molar percentages) 50%, 38.5%, 10% and 1.5%, respectively; (2) dissolving the mRNA active ingredient in 25 mM sodium acetate solution (pH=4.5); (3) using an automated high-throughput microfluidic system to mix the organic phase containing the lipid mixture and the aqueous phase containing the mRNA component in the flow ratio range of 1:1 to 1:4 at a mixing speed of 10 mL/min to 18 mL/min; (4) the prepared lipid nanoparticles (N/P ratio=6) were diluted with phosphate buffer solution and the nanoparticle solutions were ultrafiltered to the original preparation volume using ultrafiltration tubes (purchased from Millipore) with a cut-off molecular weight of 30 kDa; and (5) the obtained nanoparticles were filtered through a sterile 0.2 μm filter membrane and then stored in a sealed glass vial at low temperature.
(§2) The particle size and particle size dispersity index (PDI) of the prepared lipid nanoparticles were measured using a Zetasizer Pro (purchased from Malvern Instruments Ltd) and a DynaPro NanoStar (purchased from Wyatt) dynamic light scattering instrument. The degree of RNA encapsulation by lipid nanoparticles was characterized by the Encapsulation Efficiency %, which reflects the degree of binding of lipid nanoparticles to RNA fragments. This parameter was measured by the method of Quant-it™ RiboGreen RNA Assay (purchased from Invitrogen). Lipid nanoparticle samples were diluted in TE buffer (10 mM Tris-HCl, 1 mM EDTA, pH=7.5). A portion of the sample solution was removed, to which 0.5% Triton (Triton X-100) was added, and then allowed to stand at 37° C. for 30 minutes. Immediately after the addition of RIBOGREEN® reaction solution, the fluorescence values were read on a Varioskan LUX multifunctional microplate reader (purchased from Thermofisher) at 485 nm for absorption and 528 nm for emission to give the encapsulation efficiency values.

The nature of data set [2]: Particle size and PDI of lipid nanoparticles by dynamic light scattering. The format is physicochemical. The following applies: lipid nanoparticles with luciferase mRNA; ionizable lipid/cholesterol/DSPC/DMG-PEG2000 50/38.5/10/1.5 mol%. As to the method:
as §1, §2

Data set [3] has as its system C57BL/6 mice. Kind of data set: In vivo delivery of luciferase mRNA lipid nanoparticles in mice (bioluminescence imaging). The following applies: intravenous, single dose 0.5 mg/kg luciferase mRNA. On the procedure: The delivery effect and safety of nanoparticles encapsulated with luciferase mRNA (Trilink, L-7202) in mice were evaluated. The test mice were SPF-grade C57BL/6 mice, female, 6-8 weeks old, weighing 18-22 g, and were purchased from SPF (Beijing) Biotechnology Co., Ltd. All animals were acclimatized for more than 7 days prior to the experiment, and had free access to food and water during the experiment. The conditions include alternating light and dark for 12/12 h, the indoor temperature of 20-26° C. and the humidity of 40-70%. The mice were randomly grouped. The lipid nanoparticles encapsulated with luciferase mRNA prepared above were injected into mice by intravenous administration at a single dose of 0.5 mg/kg mRNA, and the mice were subjected to in vivo bioluminescence assay using a Small Animal In Vivo Imaging System (IVIS LUMINA III, purchased from PerkinElmer) at 6 h after administration. The assay was performed as follows: D-luciferin solution was prepared in saline at a concentration of 15 mg/mL, and each mouse was given the substrate by intraperitoneal injection. At ten minutes after administration of the substrate, the mice were anesthetized in an anesthesia chamber with isoflurane at a concentration of 2.5%. The anesthetized mice were placed in IVIS for fluorescence imaging, and data acquisition and analysis were performed on the concentrated distribution area of fluorescence.
The in vivo delivery efficiency of lipid nanoparticle carriers was expressed as the mean values of fluorescence intensity and total photon count in different animals within the same subject group, as shown in Table 5-Table 11. Higher values of fluorescence intensity and total photon count indicate higher in vivo delivery efficiency of this mRNA fragment by lipid nanoparticles. The lipid nanoparticles containing the cationic lipids of the present disclosure have good in vivo delivery efficiency.

These results are taken from patent US12617752B2, “Rapidly metabolized lipid compound” (Beijing Jitai Life Sciences Ltd, priority 2023, dated 2026).

As to `CCCCCCCCCC(=O)OCC1(CCCCCN(CCO)CCCCCCOC(=O)OCC(CCCCCCCC)CCCCCCCC)CC1` [34b], in data set [1], the “Encapsulation efficiency (%)” value turned out to be 97.61%. Besides, in data set [2], the “Particle size (nm)” value was 85.20 nm and the “Particle-size distribution (PDI)” value came out at 0.19. Also, the “Total photon count in vivo at 6 hours after administration (Total Flux)” value (“Total photon count in vivo at 6 hours” for short) in data set [3] is 2.78E+10.

For `CCCCCCCCCOC(=O)OCCCCCCN(CCO)CCCCCCC(C)(C)C(=O)OCCCC(CCCCC)CCCCC` [35a], in data set [1], the “Encapsulation efficiency (%)” value is 95.00%. Moreover, in data set [2], the “Particle size (nm)” value was 126.63 nm and the “Particle-size distribution (PDI)” value is listed as 0.22. The “Total photon count in vivo at 6 hours” value in data set [3] was 3.01E+10.

For `CCCCCCCCCC(=O)OCC(C)(C)CCCCCN(CCCCO)CCCCCCOC(=O)OCC(CCCCCCCC)CCCCCCCC` [35b], the “Encapsulation efficiency (%)” value in data set [1] is recorded as 96.35%. In addition, in data set [2], the “Particle size (nm)” value was found to be 100.40 nm and the “Particle-size distribution (PDI)” value was determined as 0.21. In data set [3], the “Total photon count in vivo at 6 hours” value is on record as 3.77E+10.

In the case of `CCCCCCCCCCCOC(=O)OCCCCN(CCO)CCCCCCC(C)(C)C(=O)OC(CCCCCCCC)CCCCCCCC` [36a], in data set [1], the “Encapsulation efficiency (%)” value is 92.41%. For the same compound, in data set [2], the “Particle size (nm)” value is listed as 104.80 nm and the “Particle-size distribution (PDI)” value is listed as 0.15. For the same compound, the “Total photon count in vivo at 6 hours” value in data set [3] came out at 2.51E+10.

As to `CCCCCCCCCC(=O)OCC1(CCCCCN(CCCCO)CCCCCCOC(=O)OCC(CCCCCCCC)CCCCCCCC)CC1` [36b], the “Encapsulation efficiency (%)” value in data set [1] is recorded as 96.10%. In data set [2], the “Particle size (nm)” value turned out to be 112.50 nm and the “Particle-size distribution (PDI)” value was found to be 0.19. Further, the “Total photon count in vivo at 6 hours” value in data set [3] is recorded as 3.84E+10.

With `CCCCCCCCCCCOC(=O)OCCCCN(CCO)CCCCCCC(C)(C)C(=O)OCC(CCCCCCC)CCCCCCC` [37a], the “Encapsulation efficiency (%)” value in data set [1] was 92.14%. In data set [2], the “Particle size (nm)” value was 110.67 nm and the “Particle-size distribution (PDI)” value was found to be 0.15. In data set [3], the “Total photon count in vivo at 6 hours” value is 3.54E+10.

With `CCCCCCCC(CCCCCCC)CCOC(=O)OCCCCCCN(CCO)CCCCCC(C)(C)COC(=O)CCC(CCCCCC)CCCCCC` [37b], the “Encapsulation efficiency (%)” value in data set [1] was 95.15%. In data set [2], the “Particle size (nm)” value was 83.72 nm and the “Particle-size distribution (PDI)” value is listed as 0.16. In data set [3], the “Total photon count in vivo at 6 hours” value stood at 3.72E+10.

For the compound `CCCCCCCCCCCOC(=O)OCCCCN(CCO)CCCCCCC(C)(C)C(=O)OCCC(CCCCCC)CCCCCC` [38a], in data set [1], the “Encapsulation efficiency (%)” value came to 94.51%. Also, in data set [2], the “Particle size (nm)” value was found to be 114.03 nm and the “Particle-size distribution (PDI)” value stood at 0.13. Also, the “Total photon count in vivo at 6 hours” value in data set [3] turned out to be 1.39E+10.

For the compound `CCCCCCCCCC(=O)OCC(C)(C)CCCCCN(CCCCCCCC(=O)OC(CCCCCCCC)CCCCCCCC)C(=O)SCCCCN(C)C` [38b], the “Encapsulation efficiency (%)” value in data set [1] was found to be 98.29%. In data set [2], the “Particle size (nm)” value was found to be 102.50 nm and the “Particle-size distribution (PDI)” value was 0.11. Moreover, the “Total photon count in vivo at 6 hours” value in data set [3] was determined as 1.49E+10.

On to `CCCCCCCCCOC(=O)OCCCCCCN(CCCCO)CCCCCCC(C)(C)C(=O)OCCCC(CCCCC)CCCCC` [39a], for which the “Encapsulation efficiency (%)” value in data set [1] stood at 93.59%. Further, in data set [2], the “Particle size (nm)” value is reported as 144.83 nm and the “Particle-size distribution (PDI)” value came to 0.08. For the same compound, in data set [3], the “Total photon count in vivo at 6 hours” value was 2.24E+10.

Consider `CCCCCCCCCOC(=O)C(C)(C)CCCCCCN(CCO)CCCCCCOC(=O)OCC(CCCCCCC)CCCCCCC` [40a], for which the “Encapsulation efficiency (%)” value in data set [1] came out at 95.08%. In data set [2], the “Particle size (nm)” value is listed as 120.90 nm and the “Particle-size distribution (PDI)” value was 0.18. The “Total photon count in vivo at 6 hours” value in data set [3] was determined as 2.03E+11.

On to `CCCCCCCCCCC(=O)OCC(C)(C)CCCCCN(CCCCCCCC(=O)OC(CCCCCCCCC)CCCCCCCCC)C(=O)SCCCCN(C)C` [40b], for which, in data set [1], the “Encapsulation efficiency (%)” value is recorded as 96.74%. For the same compound, in data set [2], the “Particle size (nm)” value is reported as 97.10 nm and the “Particle-size distribution (PDI)” value came out at 0.11. For the same compound, the “Total photon count in vivo at 6 hours” value in data set [3] is reported as 3.70E+10.

Take `CCCCCCCCCOC(=O)C(C)(C)CCCCCCN(CCO)CCCCCCOC(=O)OCCC(CCCCCC)CCCCCC` [41a]: the “Encapsulation efficiency (%)” value in data set [1] was determined as 94.51%. Besides, in data set [2], the “Particle size (nm)” value was found to be 114.03 nm and the “Particle-size distribution (PDI)” value is 0.13. The “Total photon count in vivo at 6 hours” value in data set [3] was 1.11E+11.

As to `CCCCCCCCCOC(=O)C(C)(C)CCCCCCN(CCO)CCCCCCOC(=O)OCCCC(CCCCC)CCCCC` [42a], in data set [1], the “Encapsulation efficiency (%)” value came to 95.54%. In data set [2], the “Particle size (nm)” value was 104.13 nm and the “Particle-size distribution (PDI)” value is given as 0.17. In addition, in data set [3], the “Total photon count in vivo at 6 hours” value is given as 3.47E+10.

In the case of `CCCCCCCCCOC(=O)C(C)(C)CCCCCCN(CCO)CCCCCCOC(=O)OCCCCC(CCCC)CCCC` [43a], the “Encapsulation efficiency (%)” value in data set [1] came out at 97.03%. In data set [2], the “Particle size (nm)” value is given as 105.63 nm and the “Particle-size distribution (PDI)” value was found to be 0.15. Also, the “Total photon count in vivo at 6 hours” value in data set [3] is on record as 2.23E+10.

Take `CCCCCCCCCC(=O)OCC1(CCCCCN(CCCCCCCC(=O)OCC(CCCCCCC)CCCCCCC)C(=O)SCCCN(C)C)CC1` [43b]: in data set [1], the “Encapsulation efficiency (%)” value is given as 95.26%. In data set [2], the “Particle size (nm)” value was 121.89 nm and the “Particle-size distribution (PDI)” value was 0.08. Moreover, the “Total photon count in vivo at 6 hours” value in data set [3] is given as 1.29E+10.

On to `CCCCCCCCCOC(=O)OCCCCCCN(CCO)CCCCC(C)(C)CCC(=O)OCC(CCCCCCC)CCCCCCC` [44a], for which, in data set [1], the “Encapsulation efficiency (%)” value amounted to 96.84%. Also, in data set [2], the “Particle size (nm)” value amounted to 92.67 nm and the “Particle-size distribution (PDI)” value was 0.20. For the same compound, the “Total photon count in vivo at 6 hours” value in data set [3] is reported as 1.06E+11.

Regarding `CCCCCCCCCC(=O)OCC1(CCCCCN(CCCCCCCC(=O)OCC(CCCCCCC)CCCCCCC)C(=O)SCCCCN(C)C)CC1` [44b], in data set [1], the “Encapsulation efficiency (%)” value is 97.45%. In data set [2], the “Particle size (nm)” value was 92.63 nm and the “Particle-size distribution (PDI)” value is 0.15. For the same compound, the “Total photon count in vivo at 6 hours” value in data set [3] was 1.16E+10.

For the compound `CCCCCCCCCOC(=O)CC(C)(C)CCCCCN(CCO)CCCCCCOC(=O)OCC(CCCCCCC)CCCCCCC` [45a], the “Encapsulation efficiency (%)” value in data set [1] is reported as 94.63%. In data set [2], the “Particle size (nm)” value was 114.73 nm and the “Particle-size distribution (PDI)” value is recorded as 0.15. In addition, in data set [3], the “Total photon count in vivo at 6 hours” value was 1.22E+11.

Turning to `CCCCCCCCCOC(=O)CCC(C)(C)CCCCN(CCO)CCCCCCOC(=O)OCC(CCCCCCC)CCCCCCC` [46a], the “Encapsulation efficiency (%)” value in data set [1] is 93.03%. Further, in data set [2], the “Particle size (nm)” value is 110.83 nm and the “Particle-size distribution (PDI)” value stood at 0.16. In data set [3], the “Total photon count in vivo at 6 hours” value is listed as 9.06E+10.

Take `CCCCCCCCCCC(=O)OCC(C)(C)CCCCCN(CCCCCCOC(=O)OC(CCCCCCCCC)CCCCCCCCC)C(=O)SCCCCN(C)C` [46b]: the “Encapsulation efficiency (%)” value in data set [1] is given as 97.78%. Further, in data set [2], the “Particle size (nm)” value was found to be 98.91 nm and the “Particle-size distribution (PDI)” value was determined as 0.09. The “Total photon count in vivo at 6 hours” value in data set [3] was 2.44E+10.

For `CCCCCCCCCOC(=O)CCCCC(C)(C)CCN(CCO)CCCCCCOC(=O)OCC(CCCCCCC)CCCCCCC` [47a], the “Encapsulation efficiency (%)” value in data set [1] came to 93.23%. For the same compound, in data set [2], the “Particle size (nm)” value is 104.47 nm and the “Particle-size distribution (PDI)” value was 0.21. The “Total photon count in vivo at 6 hours” value in data set [3] is on record as 3.10E+10.
